By IC50 is commonly meant the concentration that inhibits the measured activity by half. As usually defined, the Ki is a dissociation constant, usually derived from enzyme kinetics or from competition with a known ligand.

A value given as a limit tells only on which side of the number the result lay.

These results are taken from article PMC9866541, “Flavonoid Derivatives as New Potent Inhibitors of Cysteine Proteases: An Important Step toward the Design of New Compounds for the Treatment of Leishmaniasis” (Microorganisms, 2023).

One data set deals with NIH/3T3 fibroblasts. Description: Cytotoxicity on mammalian cells (sulphorhodamine B). It is filed as cell-based. To be noted: for NIH/3T3 Cells GL50: 48 h, concentration that inhibited cell growth by 50%. The method, then:
The cytotoxic effect of the test samples was evaluated on NIH/3T3 fibroblasts, obtained from the Rio de Janeiro Cell Bank (Brazil). Cells were seeded in 96-well plates ([…]). After 24 h of fixation, cells were incubated for 48 h with test samples at 0.25–250 µg/mL, in triplicate. […] Doxorubicin (0.025–25 µg/mL was used as a positive control. Cells were fixed by adding 20% trichloroacetic acid and were subsequently stained with sulphorhodamine B (0.1%) diluted in acetic acid after 48 h of exposure. Absorbance values were read on the PT-READER microplate instrument (Thermoplate®), and growth percentages were calculated according to procedures in the literature. Cytotoxicity activity was expressed as the concentration of drug that inhibited cell growth by 50% (GL50), and growth was determined by nonlinear regression using Origin 6.0 software (OriginLab). The statistical significance was analysed using an unpaired Student’s t-test or a one-way analysis of variance. A p-value < 0.05 was considered statistically relevant. In addition, the SI was calculated using the ratio between cytotoxicity in NHI-3T3 cells (GL50) and activity in the parasite forms (IC50).

In data set [1] the target is T1, rCPB2.8 (Leishmania mexicana, UniProt P36400).
T1 construct: recombinant enzymes (r) lacking the C-terminal region
T1 sequence (P36400 126-343): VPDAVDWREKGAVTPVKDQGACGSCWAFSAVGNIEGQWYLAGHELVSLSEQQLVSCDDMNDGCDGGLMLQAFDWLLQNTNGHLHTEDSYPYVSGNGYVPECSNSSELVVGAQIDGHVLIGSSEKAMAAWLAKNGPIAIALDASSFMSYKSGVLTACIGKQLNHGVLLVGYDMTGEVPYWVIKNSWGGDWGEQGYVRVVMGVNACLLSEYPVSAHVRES
Description: Determination of IC50 on rCPB2.8 (Z-FR-AMC). It is filed as biochemical. The method, then:
Cysteine proteases rCPB2.8, rCPB3, and rH84Y were assayed in 100 mM sodium acetate buffer containing 5 mM EDTA, 100 mM NaCl, 0.01% Triton X-100, and 20% glycerol, at pH 5.5. The enzymes were pre-incubated in the presence of 5 mM DTT for 5 min at 37 °C in a 1 mL final volume with constant stirring. Enzyme activities were monitored using fluorogenic probe Z-FR-AMC (9.25 µM final concentration), and the fluorescence was monitored by spectrofluorometry using fluorometer F2700 (Hitachi, Tokyo, Japan) set to λEx = 360 nm and λEm = 480 nm. The IC50 evaluation was performed using a progressive increase in the concentration of the compounds; the IC50 values were calculated using nonlinear regression, and the data were analysed by Grafit 5.0.13 software using Equation (1). (1) y=100%/1+(x/IC50)^S.

Data set [2] relates to Promastigote forms of L. amazonensis. Briefly: Antipromastigote assay (MTT). It is filed as cell-based, Leishmania amazonensis. To be noted: for IC50: Leishmania amazonensis, L. amazonensis promastigotes, 72 h, 26 °C, MTT, highest concentration tested 10 µg/mL, read-out: Promastigote IC50; for SI (selectivity index): GL50 in NIH/3T3 cells / IC50 in extracellular promastigotes. The method, then:
A standard strain of Leishmania (Leishmania amazonensis) (IFLA/BR/1967/PH8) was used for the evaluation of in vitro antileishmanial activity. The promastigote forms were grown in Schneider’s insect medium (Sigma-Aldrich®, SP/Brazil) supplemented with 20% foetal bovine serum (Sigma-Aldrich®, SP/Brazil), 10,000 U/mL penicillin, and 10 mg/mL streptomycin (Sigma-Aldrich®, SP/Brazil).
Promastigote forms of L. amazonensis in the log growth phase (10^e6 parasites/mL) were added to 96-well plates and incubated in sextuplicate with the test samples (0.25–10.0 µg/mL). The microplates were incubated at 26 °C for 72 h. Cell viability was assessed by adding 5 mg/mL of MTT ([3-(4,5-dimethylthiazol-2-yl)-2,5-diphenyltetrazolium bromide] (Sigma-Aldrich® SP/Brazil). Results were expressed as the half-maximal inhibitory concentration (IC50) calculated by a nonlinear dose–response regression curve using the statistical program GraphPad PRISM 5.0. Pentamidine (Sigma-Aldrich ® SP/Brazil; 0.25–10 µg/mL) was used as a positive control, and pure Schneider culture medium was used as a negative control.

The next data set addresses rH84Y (Leishmania mexicana, UniProt P36400, D186N/D189S/H209Y/N185D, form not given). Description: Enzyme kinetics and mechanism of inhibition of rH84Y. For mechanism: key: NCPC: non-competitive inhibition with positive cooperativity; SLNC: simple linear non-competitive inhibition. It is filed as biochemical. The method, then: (§1) Studies of cysteine proteases rCPB2.8, rCPB3, and rH84Y inhibition kinetics were performed in different concentrations of Z-FR-AMC in the presence and absence of compounds using 100 mM sodium acetate buffer containing 5 mM EDTA, 100 mM NaCl, 0.01% Triton X-100, and 20% glycerol, at pH 5.5. Aliquots of the enzymes were pre-incubated with 5 mM DTT for 5 min at 37 °C. For every kinetic measurement, the compounds were pre-incubated with each enzyme for 10 min before adding the substrate. All kinetic assays were performed in duplicate. Inhibition constants were determined using different equations, depending on the inhibition mechanism. The assumed KM values of rCPB2.8, rCPB3, and rH84Y for Z-FR-AMC were 3.23 µM, 2.99 µM, and 2.80 µM, respectively. The data of the activity rate and substrate concentration generated rectangular hyperbolic profiles that were linearised using the Lineweaver–Burk double-reciprocal plot. The replot profiles of the slope vs. inhibitor and intercept vs. inhibitor provided Ki and αKi parameters, respectively. If the replots present a parabolic profile, the system involves the participation of a second molecule of the compound, which can bind the enzyme complexed to the first compound (EI), forming IEI, and bind to the ESI complex, forming IESI. Linearisation is required, generating the 1/Kslope vs. inhibitor and 1/Kintercept vs. inhibitor replots, according to Equations (2) and (3). (2) 1/Kslope=1/Ki+[I]/βKi2, (3) 1/Kintercept=1/αKi+[I]/αγKi2, where Ki is the inhibitory constant, [I] is the concentration of inhibitor, α is the factor of formation of the ESI complex (enzyme–substrate–inhibitor complex), β is the factor of formation of the IEI complex (inhibitor–enzyme–inhibitor complex), and γ is the factor of formation of the IESI complex (inhibitor–enzyme–substrate–inhibitor complex) according to the general mechanism (Figure 8). Furthermore, β and γ measure the cooperativity between the binding of the first and second inhibitor molecules to form IEI and IESI, respectively.

In a further data set the target is rCPB3 (Leishmania mexicana, UniProt P36400, D186N/D189S/N185D, form not given). Description: Enzyme kinetics and mechanism of inhibition of rCPB3. For mechanism: key: NCPC: non-competitive inhibition with positive cooperativity; SLNC: simple linear non-competitive inhibition. It is filed as biochemical. The method, then: as §1
rCPB3, sequence (P36400 126-343 D186N/D189S/N185D): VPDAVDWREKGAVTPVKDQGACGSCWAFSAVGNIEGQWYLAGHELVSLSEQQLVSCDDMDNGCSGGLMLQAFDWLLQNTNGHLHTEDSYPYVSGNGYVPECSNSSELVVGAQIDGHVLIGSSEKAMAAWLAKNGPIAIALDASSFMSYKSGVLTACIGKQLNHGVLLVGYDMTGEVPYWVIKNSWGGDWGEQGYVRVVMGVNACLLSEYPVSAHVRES
The target of data set [3] is T1, rCPB2.8. Briefly: Enzyme kinetics and mechanism of inhibition of rCPB2.8. For mechanism: key: NCPC: non-competitive inhibition with positive cooperativity; SLNC: simple linear non-competitive inhibition. It is filed as biochemical. As for the experimental part: as §1
Where [4] appears, read: factor of formation of the ESI complex.

rH84Y, sequence (P36400 126-343 D186N/D189S/H209Y/N185D): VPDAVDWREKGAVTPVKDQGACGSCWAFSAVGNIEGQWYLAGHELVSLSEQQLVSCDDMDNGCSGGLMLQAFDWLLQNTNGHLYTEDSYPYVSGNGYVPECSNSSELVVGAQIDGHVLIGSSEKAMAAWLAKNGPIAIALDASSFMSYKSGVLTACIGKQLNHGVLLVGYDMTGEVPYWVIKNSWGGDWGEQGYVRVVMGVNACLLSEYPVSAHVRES

With `O=C(/C=C/c1ccc2c(c1)OCO2)c1ccc(Cl)cc1` [Compound 1b, (E)-3-(benzo[d][1, 3]dioxol-5-yl)-1-(4-chlorophenyl)prop-2-en-1-one], in the data set with NIH/3T3 fibroblasts, the “NIH/3T3 Cells GL50” value was determined as 811.27 µM. Besides, the IC50 was 7.42 ± 0.25 µM at rCPB2.8 [1] and > 10 mg/L in data set [2].

Turning to `O=C(/C=C/c1ccc2c(c1)OCO2)c1ccccc1O` [Compound 2b, (E)-3-(benzo[d][1, 3]dioxol-5-yl)-1-(2-hydroxyphenyl)prop-2-en-1-one], the “NIH/3T3 Cells GL50” value in the data set on NIH/3T3 fibroblasts is recorded as 910.58 µM. Further, the 50% inhibitory concentration (IC50) against rCPB2.8 [1] was 20.6 ± 1.06 µM; in data set [2], > 10 mg/L. Further, the “Times less efficient in inhibiting rCPB2.8 than compound 2a” value on rCPB2.8 [1] (ratio of IC50 values) was found to be 8.78 times.

Consider `O=C(/C=C/c1ccc2c(c1)OCO2)c1cc(Cl)ccc1O` [Compound 3b, (E)-3-(benzo[d][1, 3]dioxol-5-yl)-1-(5-chloro-2-hydroxyphenyl)prop-2-en-1-one], for which, in the data set on NIH/3T3 fibroblasts, the “NIH/3T3 Cells GL50” value is 59.13 µM. For the same compound, half-maximal inhibition on rCPB2.8 [1] (IC50) was put at 18.4 ± 1.22 µM. Besides, in data set [2], the “SI (selectivity index)” value worked out at 61.59 and the IC50 is 0.96 µM.

As for `N=C(N)c1ccc(OCCCCCOc2ccc(C(=N)N)cc2)cc1` [Pentamidine, reference compound], the IC50 in data set [2] amounted to 0.8 µM.

In the case of `COc1ccc(-c2oc3ccccc3c(=O)c2O)cc1` [f12a, 3-hydroxy-2-(4-methoxyphenyl)-4H-chromen-4-one], the “NIH/3T3 Cells GL50” value in the data set on NIH/3T3 fibroblasts is listed as >931.93 µM. Further, the IC50 was 4.72 ± 0.38 µM at rCPB2.8 [1] and > 10 mg/L in data set [2]. Besides, the Mechanism entry on rH84Y is recorded as “SLNC”; at rCPB3, “SLNC”; at rCPB2.8 [3] it was “NCPC”. Also, the results for the αKi on rH84Y, on rCPB3 and on rCPB2.8 [3] were 11.2 ± 0.5 µM, 7.50 ± 0.66 µM and 10.7 ± 1.1 µM, respectively. For the same compound, the α on rH84Y (setting [4]), on rCPB3 (setting [4]) and on rCPB2.8 [3] (setting [4]) was 1 throughout. Besides, the “Formation of IESI favoured by binding of the first molecule” value on rCPB2.8 [3] is recorded as 50 fold. Also, the Ki came to 12.4 ± 1.4 µM on rCPB2.8 [3] (Ki), 3.65 ± 0.39 µM on rCPB2.8 [3] (βKi) and 0.25 ± 0.03 µM on rCPB2.8 [3] (γKi). The compound also returned a β at rCPB2.8 [3] (factor of formation of the IEI complex) of 0.29. On rCPB2.8 [3] (factor of formation of the IESI complex), this compound registered a γ of 0.02.

Take `O=C(/C=C/c1ccc2c(c1)OCO2)c1cc(F)ccc1O` [Compound 4b, (E)-3-(benzo[d][1, 3]dioxol-5-yl)-1-(5-fluoro-2-hydroxyphenyl)prop-2-en-1-one]: the “NIH/3T3 Cells GL50” value in the data set on NIH/3T3 fibroblasts is on record as >873.36 µM. In addition, the IC50 on rCPB2.8 [1] was 6.61 ± 0.41 µM; in data set [2] it was 1.95 µM.

For the compound `C[C@@H]1[C@H](O)[C@@H](C)/C=C/C=C/C=C/C=C/C=C/C=C/C=C/[C@H](O[C@@H]2O[C@H](C)[C@@H](O)[C@H](N)[C@@H]2O)C[C@@H]2O[C@](O)(C[C@@H](O)C[C@@H](O)[C@H](O)CC[C@@H](O)C[C@@H](O)CC(=O)O[C@H]1C)C[C@H](O)[C@H]2C(=O)O` [Amphotericin B, reference compound], the IC50 in data set [2] was found to be 0.1 µM.

In the case of `COc1cccc2c1C(=O)c1c(O)c3c(c(O)c1C2=O)C[C@@](O)(C(=O)CO)C[C@@H]3O[C@H]1C[C@H](N)[C@H](O)[C@H](C)O1` [Doxorubicin, reference compound], the “NIH/3T3 Cells GL50” value with NIH/3T3 fibroblasts is recorded as 0.05 µM.

For `CN(C)c1ccc(-c2oc3ccc(Cl)cc3c(=O)c2O)cc1` [f13c, 6-chloro-2-(4-(dimethylamino)phenyl)-3-hydroxy-4H-chromen-4-one], in the data set on NIH/3T3 fibroblasts, the “NIH/3T3 Cells GL50” value is reported as >791.76 µM. Also, the IC50 was 14.2 ± 0.65 µM against rCPB2.8 [1] and > 10 mg/L in data set [2].

Consider `CN(C)c1ccc(-c2oc3ccccc3c(=O)c2O)cc1` [f12c, 2-(4-(dimethylamino)phenyl)-3-hydroxy-4H-chromen-4-one], for which the “NIH/3T3 Cells GL50” value in the data set with NIH/3T3 fibroblasts is 759.13 µM. The concentration for half-maximal inhibition (IC50) against rCPB2.8 [1] was 10.3 ± 0.39 µM; in data set [2], 0.73 µM. For the same compound, the “SI (selectivity index)” value in data set [2] is given as 1039.90.

On to `COc1ccc(/C=C/C(=O)c2cc(Cl)ccc2O)cc1` [Compound 3a, (E)-1-(5-chloro-2-hydroxyphenyl)-3-(4-methoxyphenyl)prop-2-en-1-one], for which, in the data set with NIH/3T3 fibroblasts, the “NIH/3T3 Cells GL50” value was >865.86 µM. For the same compound, the “Cytotoxicity against mammal cells (in words)” value in the data set with NIH/3T3 fibroblasts (NIH/3T3 cells) is “noncytotoxic”. Moreover, the IC50 was 7.11 ± 0.32 µM against rCPB2.8 [1] and 0.6 µM in data set [2]. For the same compound, in data set [2], the “SI (selectivity index)” value was >1443.10.

Regarding `COc1ccc(/C=C/C(=O)c2ccccc2O)cc1` [Compound 2a, (E)-1-(2-hydroxyphenyl)-3-(4-methoxyphenyl)prop-2-en-1-one], the “NIH/3T3 Cells GL50” value in the data set on NIH/3T3 fibroblasts is 940.14 µM. For the same compound, at rCPB2.8 [1], the IC50 amounted to 2.35 ± 0.19 µM. For the same compound, in data set [2], the “SI (selectivity index)” value came out at 1324 and the IC50 stood at 0.71 µM.

`COc1ccc(-c2oc3ccc(Cl)cc3c(=O)c2O)cc1` [f13a, 6-chloro-3-hydroxy-2-(4-methoxyphenyl)-4H-chromen-4-one]: in the data set with NIH/3T3 fibroblasts, the “NIH/3T3 Cells GL50” value is on record as >825.87 µM. This compound also yielded an IC50 against rCPB2.8 [1] of 1.88 ± 0.07 µM. Further, in data set [2], the “SI (selectivity index)” value was >764.70 and the IC50 is 1.08 µM.

Take `COc1ccc(/C=C/C(=O)c2cc(F)ccc2O)cc1` [Compound 4a, (E)-1-(5-fluoro-2-hydroxyphenyl)-3-(4-methoxyphenyl)prop-2-en-1-one]: the “NIH/3T3 Cells GL50” value in the data set with NIH/3T3 fibroblasts is given as 901.09 µM. In addition, the IC50 is 3.35 ± 0.17 µM on rCPB2.8 [1] and > 10 mg/L in data set [2].
